{"source": "paper PMC12049818", "about": "“Identification of NUV-244 as a PNPLA3 I148M degrading small molecule” (iScience, 2025)", "tested_on": "Huh7 cells expressing unmodified PNPLA3 I148M", "assay": "Incucyte growth curves, Huh7 expressing PNPLA3 I148M", "assay_type": "cell-based, human", "conditions": "1μM or 5μM", "description": "Huh7, Huh7 PNPLA3 I148M, Huh7 PNPLA3, Hep3b and LX-2 cells were seeded at a concentration of 1000 cells/well in 60 μl of growth medium on 384-well microtiter plates (Revvity, Waltham, MA, USA, PhenoPlate 384-well microplate, #6057308) and stored in a 37°C incubator with 5% CO2 and 95% humidity overnight. Next day cells were treated with DMSO as control (1% final concentration) or compound (1μM or 5μM final concentration) and cell density was recorded in the Incucyte® life cell imager (Sartorius, Göttingen, Germany) every 4 hours over a period of 5 days. Growth curves were generated by monitoring confluence over time. Proliferative capacity of PNPLA3 I148M-expressing cells was compared to control cells, and the restoration of proliferative fitness was analyzed."}
{"smiles": "Cc1cccc(Cc2nc(C)c(C(=O)Nc3cc(O)ccc3Cl)s2)c1", "note": "[NUV-244]", "values": [{"measurement": "proliferative fitness of Huh7 cells expressing PNPLA3 I148M", "result": "restored"}]}
